Data on 3 molecules can be found in publication PMC10127945 (Nature chemical biology, 2022).

For one data set, the system named is SARS-CoV-2. In kind it is cell-based, SARS-CoV-2 (USA-WA1/2020).
The target of data set [1] is SARS-CoV-2 envelope (E) protein viroporin ion channel (Severe acute respiratory syndrome coronavirus 2, UniProt P0DTC4). It counts as cell-based.
Data set [2] in a line: Stability in aqueous solution. In kind it is physicochemical. The following applies: neutral pH.
In data set [3] the target is ACE2/SARS-CoV-2 Spike protein binding (Homo sapiens, UniProt Q9BYF1). It counts as cell-based.
Chain of ACE2/SARS-CoV-2 Spike protein binding (Q9BYF1 18-805 limits assumed): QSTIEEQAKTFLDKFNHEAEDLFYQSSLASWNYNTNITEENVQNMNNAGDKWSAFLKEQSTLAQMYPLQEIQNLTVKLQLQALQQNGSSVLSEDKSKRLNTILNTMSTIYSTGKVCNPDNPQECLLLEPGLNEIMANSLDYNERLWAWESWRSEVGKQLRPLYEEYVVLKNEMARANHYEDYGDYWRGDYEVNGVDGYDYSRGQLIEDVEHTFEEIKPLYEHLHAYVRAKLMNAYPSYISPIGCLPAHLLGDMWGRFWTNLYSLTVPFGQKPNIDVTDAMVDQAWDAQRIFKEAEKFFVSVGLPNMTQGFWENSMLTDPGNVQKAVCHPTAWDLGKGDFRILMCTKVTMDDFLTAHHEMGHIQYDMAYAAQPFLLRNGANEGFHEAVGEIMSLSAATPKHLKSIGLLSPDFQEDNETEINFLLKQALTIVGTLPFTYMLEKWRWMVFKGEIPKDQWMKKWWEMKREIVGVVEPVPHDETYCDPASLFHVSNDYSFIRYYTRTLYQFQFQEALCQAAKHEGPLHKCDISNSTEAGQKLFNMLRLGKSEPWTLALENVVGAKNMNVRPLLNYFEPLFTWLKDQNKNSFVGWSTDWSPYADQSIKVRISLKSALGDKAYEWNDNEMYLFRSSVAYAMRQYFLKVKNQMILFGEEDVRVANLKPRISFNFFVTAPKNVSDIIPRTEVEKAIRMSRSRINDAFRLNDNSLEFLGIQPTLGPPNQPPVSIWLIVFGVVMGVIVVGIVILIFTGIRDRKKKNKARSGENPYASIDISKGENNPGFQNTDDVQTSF
A further data set deals with ACE2 (Homo sapiens, UniProt Q9BYF1). As to the kind of experiment: Biotin-switch assay for SNO-ACE2 in HeLa-ACE2 cells. In kind it is cell-based. As to conditions: 100 μM SNOC.
Chain of ACE2 (Q9BYF1 18-805): as the sequence (Q9BYF1 18-805 limits assumed) above
Another data set deals with SARS-CoV-2 Spike protein (Severe acute respiratory syndrome coronavirus 2, UniProt P0DTC2). In kind it is biochemical.
The target of a further data set is TMPRSS2 (Homo sapiens, UniProt O15393). In words: Biotin-switch assay for SNO-TMPRSS2. The following applies: 100 μM SNOC, 20 minutes, HeLa-ACE2 cells. In kind it is cell-based.
Chain of TMPRSS2 (O15393 whole entry): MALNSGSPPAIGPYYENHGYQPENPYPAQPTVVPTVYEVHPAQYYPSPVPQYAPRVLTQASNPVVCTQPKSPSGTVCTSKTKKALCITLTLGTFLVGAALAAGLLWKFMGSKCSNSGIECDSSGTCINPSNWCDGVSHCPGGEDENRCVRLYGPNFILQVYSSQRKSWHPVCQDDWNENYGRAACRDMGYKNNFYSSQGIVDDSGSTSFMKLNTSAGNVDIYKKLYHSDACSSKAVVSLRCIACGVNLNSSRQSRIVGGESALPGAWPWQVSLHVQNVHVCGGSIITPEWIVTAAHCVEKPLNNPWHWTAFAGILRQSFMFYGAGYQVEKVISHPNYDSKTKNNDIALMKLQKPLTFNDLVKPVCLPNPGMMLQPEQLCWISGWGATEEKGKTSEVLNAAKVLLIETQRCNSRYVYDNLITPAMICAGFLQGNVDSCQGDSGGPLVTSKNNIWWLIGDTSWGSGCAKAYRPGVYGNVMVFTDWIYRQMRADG

Chain of SARS-CoV-2 envelope (E) protein viroporin ion channel (P0DTC4 whole entry): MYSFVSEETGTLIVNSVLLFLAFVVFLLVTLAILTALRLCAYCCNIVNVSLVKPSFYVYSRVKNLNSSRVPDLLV

As for `CC12CC3CC(C)(C1)CC(N)(C3)C2` [memantine], in the data set with SARS-CoV-2, the “efficacy against live SARS-CoV-2 infection” value is “no efficacy”. Besides, in data set [1], the “inhibition of E protein voltage-dependent K+ current” value is “inhibited”.
On to S-nitrosocysteine [SNOC], for which, in data set [2], the “time for NO to dissipate” value is less than 5 min. Further, the “binding of purified S protein to HeLa-ACE2 cells” value in data set [3] is “significantly decreased binding”. For the same molecule, the “stability (persistence) of SNO-ACE2 formation” value at ACE2 is listed as “at least 12 h”. The “S-nitrosylation of ACE2” value at ACE2 (20 minutes) was “could be S-nitrosylated”. Besides, the “S-nitrosylation of Spike protein” value on SARS-CoV-2 Spike protein is given as “Lack of S-nitrosylation”. Besides, the “S-nitrosylation of TMPRSS2” value on TMPRSS2 is “could be S-nitrosylated”.
On to `NC12CC3CC(CC(C3)C1)C2` [amantadine], for which the “efficacy against live SARS-CoV-2 infection” value in the data set on SARS-CoV-2 is given as “no efficacy”.
